The source of these data is patent US10988445B2 (AstraZeneca AB, priority 2015, dated 2021).

The test system of the experiment is human TH17 cells. The experiment in a line: Inhibition of IL-17 release from human TH17 cells. Format: cell-based. The following applies: Homo sapiens, 96 h, isolated human TH17 cells, 4 days culture, IL-17A by HTRF; read-out: pIC50 IL-17 release (converted). An excerpt:
Inhibition of IL-17 Release from Human TH17 Cells (IL-17 Release)
This test is designed to screen compounds for their inhibitory effect on the release of IL-17 from isolated and cultured human TH17 cells.
Peripheral blood mononuclear cells (PBMC) were isolated from heparin treated human whole blood fromhealthy donors by density gradient centrifugation. TH17 cells (CD4+CXCR3-CCR6+) were enriched using a human TH17 Cell Enrichment Kit (Stemcell Technologies) according to the manufacturer's protocol. […] On day 4 supernatants were collected and IL-17A was measured using a Human IL-17 HTRF Assay kit (Cisbio Bioassays) according to the manufacturer's protocol. […] Results
Background: Time-resolved FRET reads energy transfer from a long-lived donor to a nearby acceptor.

As for `O=C(Nc1ccc(C(O)(C(F)(F)F)C(F)(F)F)cc1)C1c2ccc(S(=O)(=O)CC3CC3)cc2CN1C(=O)CC1(O)CC1` (stereo not shown) [Example 206, 5-[(Cyclopropylmethyl)sulfonyl]-N-[4-(1,1,1,3,3,3-hexafluoro-2-hydroxypropan-2-yl)phenyl]-2-[(1-hydroxycyclopropyl)acetyl]-2,3-dihydro-1H-isoindole-1-carboxamide], the IC50 is 39.8 nM. Regarding `CC(C)(O)CC(=O)N1Cc2cc(S(=O)(=O)CC3CC3)ccc2C1C(=O)Nc1ccc(C(O)(C(F)(F)F)C(F)(F)F)cc1` (stereo not shown) [Example 207, 5-[(Cyclopropylmethyl)sulfonyl]-N-[4-(1,1,1,3,3,3-hexafluoro-2-hydroxypropan-2-yl)phenyl]-2-(3-hydroxy-3-methylbutanoyl)-2,3-dihydro-1H-isoindole-1-carboxamide], the IC50 was 39.8 nM. For `O=C(Nc1ccc(C(O)(C(F)(F)F)C(F)(F)F)cc1)C1c2ccc(S(=O)(=O)CC3CC3)cc2CN1C(=O)C1CCCO1` (stereo not shown) [Example 208, 5-[(Cyclopropylmethyl)sulfonyl]-N-[4-(1,1,1,3,3,3-hexafluoro-2-hydroxypropan-2-yl)phenyl]-2-(tetrahydrofuran-2-ylcarbonyl)-2,3-dihydro-1H-isoindole-1-carboxamide] the value was 20 nM; for `N#CC1(C(=O)N2Cc3cc(S(=O)(=O)CC4CC4)ccc3C2C(=O)Nc2ccc(C(O)(C(F)(F)F)C(F)(F)F)cc2)CC1` (stereo not shown) [Example 209, 2-[(1-Cyanocyclopropyl)carbonyl]-5-[(cyclopropylmethyl)sulfonyl]-N-[4-(1,1,1,3,3,3-hexafluoro-2-hydroxypropan-2-yl)phenyl]-2,3-dihydro-1H-isoindole-1-carboxamide], 25.1 nM.

`O=C(Nc1ccc(C(O)(C(F)(F)F)C(F)(F)F)cc1)C1c2ccc(S(=O)(=O)CC3CC3)cc2CN1C(=O)C1CCOC1` (stereo not shown) [Example 210, 5-[(Cyclopropylmethyl)sulfonyl]-N-[4-(1,1,1,3,3,3-hexafluoro-2-hydroxypropan-2-yl)phenyl]-2-(tetrahydrofuran-3-ylcarbonyl)-2,3-dihydro-1H-isoindole-1-carboxamide]: the IC50 was 25.1 nM. As to `NC(C(=O)N1Cc2cc(S(=O)(=O)CC3CC3)ccc2C1C(=O)Nc1ccc(C(O)(C(F)(F)F)C(F)(F)F)cc1)C1CC1` (stereo not shown) [Example 211, 2-[Amino(cyclopropyl)acetyl]-5-[(cyclopropylmethyl)sulfonyl]-N-[4-(1,1,1,3,3,3-hexafluoro-2-hydroxypropan-2-yl)phenyl]-2,3-dihydro-1H-isoindole-1-carboxamide], the IC50 was 200 nM.

For the molecule `COC1(C(=O)N2Cc3cc(S(=O)(=O)CC4CC4)ccc3C2C(=O)Nc2ccc(C(O)(C(F)(F)F)C(F)(F)F)cc2)CC1` (stereo not shown) [Example 212, 5-[(Cyclopropylmethyl)sulfonyl]-N-[4-(1,1,1,3,3,3-hexafluoro-2-hydroxypropan-2-yl)phenyl]-2-[(1-methoxycyclopropyl)carbonyl]-2,3-dihydro-1H-isoindole-1-carboxamide], the IC50 was 15.8 nM.

As to `COC(=O)N1Cc2cc(S(=O)(=O)CC3CC3)ccc2C1C(=O)Nc1ccc(C(O)(C(F)(F)F)C(F)(F)F)cc1` (stereo not shown) [Example 213, Methyl 5-[(cyclopropylmethyl)sulfonyl]-1-{[4-(1,1,1,3,3,3-hexafluoro-2-hydroxypropan-2-yl)phenyl]carbamoyl}-1,3-dihydro-2H-isoindole-2-carboxylate], the IC50 was 7.94 nM. On to `O=C(Nc1ccc(C(O)(C(F)(F)F)C(F)(F)F)cc1)C1c2ccc(S(=O)(=O)CC3CC3)cc2CN1C(=O)C(F)(F)C1CC1` (stereo not shown) [Example 214, 2-[Cyclopropyl(difluoro)acetyl]-5-[(cyclopropylmethyl)sulfonyl]-N-[4-(1,1,1,3,3,3-hexafluoro-2-hydroxypropan-2-yl)phenyl]-2,3-dihydro-1H-isoindole-1-carboxamide], for which the IC50 was 10 nM. Next, `CNS(=O)(=O)c1ccc2c(c1)CNC2C(=O)Nc1ccc(C(O)(C(F)(F)F)C(F)(F)F)cc1` (stereo not shown) [Example 300, N-[4-(1,1,1,3,3,3-hexafluoro-2-hydroxypropan-2-yl)phenyl]-5-(methylsulfamoyl)-2,3-dihydro-1H-isoindole-1-carboxamide]: 25.1 nM; `CNS(=O)(=O)c1ccc2c(c1)CN(C(=O)OC)C2C(=O)Nc1ccc(C(O)(C(F)(F)F)C(F)(F)F)cc1` (stereo not shown) [Example 304, Methyl 1-{[4-(1,1,1,3,3,3-hexafluoro-2-hydroxypropan-2-yl)phenyl]carbamoyl}-5-(methylsulfamoyl)-1,3-dihydro-2H-isoindole-2-carboxylate]: 12.6 nM. For `CCOC(=O)N1Cc2cc(S(=O)(=O)NC)ccc2C1C(=O)Nc1ccc(C(O)(C(F)(F)F)C(F)(F)F)cc1` (stereo not shown) [Example 305, Ethyl 1-{[4-(1,1,1,3,3,3-hexafluoro-2-hydroxypropan-2-yl)phenyl]carbamoyl}-5-(methylsulfamoyl)-1,3-dihydro-2H-isoindole-2-carboxylate] the value was 10 nM. For `CNS(=O)(=O)c1ccc2c(c1)CN(C(=O)C1(OC)CC1)C2C(=O)Nc1ccc(C(O)(C(F)(F)F)C(F)(F)F)cc1` (stereo not shown) [Example 306, N-[4-(1,1,1,3,3,3-Hexafluoro-2-hydroxypropan-2-yl)phenyl]-2-[(1-methoxycyclopropyl)carbonyl]-5-(methylsulfamoyl)-2,3-dihydro-1H-isoindole-1-carboxamide] the value was 20 nM; for `CNS(=O)(=O)c1ccc2c(c1)CN(C(=O)COC)C2C(=O)Nc1ccc(C(O)(C(F)(F)F)C(F)(F)F)cc1` (stereo not shown) [Example 308, N-[4-(1,1,1,3,3,3-Hexafluoro-2-hydroxypropan-2-yl)phenyl]-2-(methoxyacetyl)-5-(methylsulfamoyl)-2,3-dihydro-1H-isoindole-1-carboxamide], 31.6 nM. Consider `CNS(=O)(=O)c1ccc2c(c1)CN(C(=O)[C@H]1CCCO1)C2C(=O)Nc1ccc(C(O)(C(F)(F)F)C(F)(F)F)cc1` (stereo partly drawn) [Example 310, N-[4-(1,1,1,3,3,3-Hexafluoro-2-hydroxypropan-2-yl)phenyl]-5-(methylsulfamoyl)-2-[(2R)-tetrahydrofuran-2-ylcarbonyl]-2,3-dihydro-1H-isoindole-1-carboxamide], for which the IC50 is 31.6 nM. For `CNS(=O)(=O)c1ccc2c(c1)CN(C(=O)[C@@H]1CCCO1)C2C(=O)Nc1ccc(C(O)(C(F)(F)F)C(F)(F)F)cc1` (stereo partly drawn) [Example 311, N-[4-(1,1,1,3,3,3-Hexafluoro-2-hydroxypropan-2-yl)phenyl]-5-(methylsulfamoyl)-2-[(2S)-tetrahydrofuran-2-ylcarbonyl]-2,3-dihydro-1H-isoindole-1-carboxamide] the value was 31.6 nM; for `CCC(OC)C(=O)N1Cc2cc(S(=O)(=O)NC)ccc2C1C(=O)Nc1ccc(C(O)(C(F)(F)F)C(F)(F)F)cc1` (stereo not shown) [Example 312, N-[4-(1,1,1,3,3,3-Hexafluoro-2-hydroxypropan-2-yl)phenyl]-2-(2-methoxybutanoyl)-5-(methylsulfamoyl)-2,3-dihydro-1H-isoindole-1-carboxamide], 39.8 nM. Next, `CNS(=O)(=O)c1ccc2c(c1)CN(C(=O)CO)C2C(=O)Nc1ccc(C(O)(C(F)(F)F)C(F)(F)F)cc1` (stereo not shown) [Example 313, N-[4-(1,1,1,3,3,3-Hexafluoro-2-hydroxypropan-2-yl)phenyl]-2-(hydroxyacetyl)-5-(methylsulfamoyl)-2,3-dihydro-1H-isoindole-1-carboxamide]: 100 nM. `CNC(=O)N1Cc2cc(S(=O)(=O)NC)ccc2C1C(=O)Nc1ccc(C(O)(C(F)(F)F)C(F)(F)F)cc1` (stereo not shown) [Example 314]: the IC50 was 63.1 nM. Next, `CS(=O)(=O)c1ccc2c(c1)CN(C(=O)Cc1ccccc1)C2C(=O)Nc1ccc(C(O)(C(F)(F)F)C(F)(F)F)cc1` (stereo not shown) [Example 402, N-[4-(1,1,1,3,3,3-Hexafluoro-2-hydroxypropan-2-yl)phenyl]-5-(methylsulfonyl)-2-(phenylacetyl)-2,3-dihydro-1H-isoindole-1-carboxamide]: 12.6 nM; `CC(CF)C(=O)N1Cc2cc(S(C)(=O)=O)ccc2C1C(=O)Nc1ccc(C(O)(C(F)(F)F)C(F)(F)F)cc1` (stereo not shown) [Example 408, 2-(3-Fluoro-2-methylpropanoyl)-N-[4-(1,1,1,3,3,3-hexafluoro-2-hydroxypropan-2-yl)phenyl]-5-(methylsulfonyl)-2,3-dihydro-1H-isoindole-1-carboxamide]: 12.6 nM.

`CC(C)CC(=O)N1Cc2cc(S(C)(=O)=O)ccc2C1C(=O)Nc1ccc(C(O)(C(F)(F)F)C(F)(F)F)cc1` (stereo not shown) [Example 410, N-[4-(1,1,1,3,3,3-Hexafluoro-2-hydroxypropan-2-yl)phenyl]-2-(3-methylbutanoyl)-5-(methylsulfonyl)-2,3-dihydro-1H-isoindole-1-carboxamide]: the IC50 was 20 nM. Next, `CS(=O)(=O)c1ccc2c(c1)CN(C(=O)CC1CC1)C2C(=O)Nc1ccc(C(O)(C(F)(F)F)C(F)(F)F)cc1` (stereo not shown) [Example 411, 2-(Cyclopropylacetyl)-N-[4-(1,1,1,3,3,3-hexafluoro-2-hydroxypropan-2-yl)phenyl]-5-(methylsulfonyl)-2,3-dihydro-1H-isoindole-1-carboxamide]: 25.1 nM; `CS(=O)(=O)c1ccc2c(c1)CN(C(=O)CC1(O)CC1)C2C(=O)Nc1ccc(C(O)(C(F)(F)F)C(F)(F)F)cc1` (stereo not shown) [Example 412, N-[4-(1,1,1,3,3,3-Hexafluoro-2-hydroxypropan-2-yl)phenyl]-2-[(1-hydroxycyclopropyl)acetyl]-5-(methylsulfonyl)-2,3-dihydro-1H-isoindole-1-carboxamide]: 25.1 nM. Next, `C[C@H](F)CC(=O)N1Cc2cc(S(C)(=O)=O)ccc2C1C(=O)Nc1ccc(C(O)(C(F)(F)F)C(F)(F)F)cc1` (stereo partly drawn) [Example 413, 2-[(3S)-3-Fluorobutanoyl]-N-[4-(1,1,1,3,3,3-hexafluoro-2-hydroxypropan-2-yl)phenyl]-5-(methylsulfonyl)-2,3-dihydro-1H-isoindole-1-carboxamide]: 31.6 nM.
